Laboratory results: article PMC9408991, “Antitumor Effects of a New Retinoate of the Fungal Cytotoxin Illudin M in Brain Tumor Models” (International Journal of Molecular Sciences, 2022)
Like-named read-outs stand apart in the source and are kept apart here.

Columns and labels:
518A2 melanoma cells = experiment: MTT cell viability assay, 518A2 melanoma; assay type: cell-based; conditions: Homo sapiens, read-out: Inhibitory concentration IC50
Experimental: (§1) 518A2 (Department of Radiotherapy, Medical University of Vienna, Vienna, Austria) melanoma, KB-V1^Vbl (ACC-149) cervix carcinoma, MCF-7^Topo (ACC-115) breast carcinoma, HT29 (ACC-299) colon carcinoma were cultivated in Dulbecco’s Modified Eagle Medium (DMEM) supplemented with 10% fetal bovine serum and 1% antibiotic-antimycotic at 37 °C, 5% CO2, and 95% humidity. To keep MCF-7^Topo and KB-V1^Vbl cells resistant, the maximum-tolerated doses of topotecan or vinblastine were added to the cell culture medium 24 h after every passage. The human HL60 leukemia cells were obtained from the German National Resource Center for Biological Material (DSMZ), Braunschweig. Neuroectodermal stem cells NE-4C (ATCC No. CRL-2925), primary mouse astrocytes, rat glioma C6 (ATCC No. CCL-107) and human glioma U87 (ATCC No. HTB-14) were used.
(§2) Non-GBM cells (5 × 10^4 cells/mL, 100 µL/well) were grown in 96-well plates for 24 h. […] After the addition of 12.5 µL of a 0.5% MTT solution in PBS, the cells were incubated for 3 h at 37 °C so that the water-soluble MTT could be converted to formazan crystals. Then, the plates were centrifuged (300× g, 5 min, 4 °C), the medium withdrawn, and the formazan dissolved in 25 µL of DMSO containing 10% sodium dodecylsulfate (SDS) and 0.6% acetic acid for at least 2 h at 37 °C. In the case of the HL60 cells, after 2 h, the precipitate of formazan crystals was redissolved in a 10% solution of SDS in DMSO containing 0.6% acetic acid.

HL60 leukemia cells = experiment: MTT cell viability assay, HL60 leukemia; assay type: cell-based; conditions: Homo sapiens, read-out: Inhibitory concentration IC50
Experimental: as §1, §2

C6 astrocytoma cells = experiment: MTT cell viability assay, C6 astrocytoma; assay type: cell-based; conditions: Rattus norvegicus, read-out: Inhibitory concentration IC50
Experimental: as §1
Non-GBM cells (5 × 10^4 cells/mL, 100 µL/well) were grown in 96-well plates for 24 h. Then, they were treated with various concentrations of the test compounds or vehicle (DMSO, or EtOH) for 72 h at 37 °C. After the addition of 12.5 µL of a 0.5% MTT solution in PBS, the cells were incubated for 3 h at 37 °C so that the water-soluble MTT could be converted to formazan crystals. Then, the plates were centrifuged (300× g, 5 min, 4 °C), the medium withdrawn, and the formazan dissolved in 25 µL of DMSO containing 10% sodium dodecylsulfate (SDS) and 0.6% acetic acid for at least 2 h at 37 °C. In the case of the HL60 cells, after 2 h, the precipitate of formazan crystals was redissolved in a 10% solution of SDS in DMSO containing 0.6% acetic acid.
(§3) […] Afterward, 10 µL of a 5 mg/mL MTT solution in PBS was added to the cells for 3 h at 37 °C. Then, the spheres were centrifuged shortly to collect the cells on the bottom of the plate, and the medium was removed by careful pipetting for both adherently grown and floating sphere GBM cultures. Afterward, formazan was dissolved in a mixture (24:1 v:v) of isopropanol and 1 M HCl using 100 µL for adherent cells by shaking the plates for at least 20 min. The absorbance of formazan (λ = 570 nm), and background (λ = 630 nm) was measured with a microplate reader (Tecan Spark, Tecan Deutschland GmbH, Crailsheim, Germany).

U87 glioma cells = experiment: MTT cell viability assay, U87 glioma; assay type: cell-based; conditions: Homo sapiens, U-87 MG, read-out: Inhibitory concentration IC50
Experimental: as §1, §3

[1] = system: NE-4C neuroectodermal stem cells; experiment: MTT cell viability assay, NE-4C neuroectodermal stem cells; assay type: cell-based; conditions: Mus musculus, read-out: Inhibitory concentration IC50
Experimental: NE-4C cells derived from the anterior brain vesicles of p53-deficient 9-day-old mouse embryos were maintained in Minimum Essential Medium (MEM; Sigma Aldrich, Taufkirchen, Germany) supplemented with 5% fetal calf serum (FCS; Invitrogen-Gibco, Carlsbad, CA, USA), 4 mM glutamine (Sigma-Aldrich, Taufkirchen, Germany) and 40 ug/mL gentamycin (Chinoin, Budapest, Hungary). For maintenance, subconfluent cultures were regularly split by trypsinization (0.05 w/v% trypsin in PBS) into poly-L-lysine-coated Petri dishes. Primary astrocytes were isolated from whole brains of neonatal (P0-P3) mice, as described earlier. In brief, meninges were removed, and the tissue pieces were subjected to enzymatic dissociation, using 0.05% w/v trypsin and 0.05% w/v DNase for 10 min at room temperature. The cells were plated onto poly-L-lysine coated plastic surfaces and grown in MEM supplemented with 10% fetal calf serum, 4 mM glutamine and 40 ug/mL gentamycin. Primary neuronal cultures were prepared from embryonic (E15–E16) mouse (CD1) forebrains, as described earlier. In brief, cell suspensions were prepared by mechanical dissociation over a nylon mesh with a pore diameter of 40–42 μm. The cells were seeded at 10^5 cells/cm^2 density onto PLL-coated surfaces. The cultures were maintained in MEM supplemented with 5% FCS, 4 mM glutamine, 40 µg/mL gentamicin and 2.5 μg/mL amphotericin B (Sigma). In co-culture experiments, U87 glioma cells were seeded onto established neuronal cultures at DIV3 in a 25,000 cell/cm^2 density.
as §2

[2] = system: astrocytes and neurons in primary neuronal cultures; experiment: Immunostaining of GFAP and βIII-tubulin in primary neuronal cultures; assay type: cell-based, mouse; conditions: 1 µM; for effect on GFAP filaments of astrocytes: 48 h exposure
Experimental: Astroglia cells grown on poly-L-lysine-coated glass cover slips were fixed with 4% paraformaldehyde in PBS for 20 min at room temperature and then permeabilized with Triton X-100 (0.1% v/v in PBS; 5 min). Nonspecific antibodies were blocked by incubation with 3% FBS in PBS (room temperature, 1 h). α-GFAP antibody (rabbit, DAKO) was used in a dilution of 1:2000 and was visualized by anti-rabbit IgG Alexa 594 (1:1000). DAPI (4′,6-diamidino-2-phenylindole) was used for nuclei staining. Fluorescence images were captured manually on a Zeiss Axiovert 200 M microscope fitted with 20- to 60-fold zoom and a Zeiss AxioCam MRm digital camera. Further applied antibodies were tubulin III (Sigma T5076), used at a dilution of 1:1000, and Annexin V. Cy3.18 (Sigma A4963).
Figure 4 Immunostaining of primary neurons derived from E14, 5 forebrains treated with 1 µM of 1, 2 or all-trans retinoic acid (RA) plus 1. Blue: nuclei stained with DAPI; green: tubulin stained with βIII-tubulin specific antibody; red: GFAP stained with α-GFAP antibody. Fluorescence microscope Zeiss Axiovert 200 M, 63× objective, 1024 × 1024 res. Scale bar: 50 µm.

Row | SMILES | IC50 (518A2 melanoma cells; 518A2, 24 h exposure) | IC50 (518A2 melanoma cells; 518A2, 48 h exposure) | IC50 (HL60 leukemia cells; HL-60, HL60, 24 h exposure) | IC50 (HL60 leukemia cells; HL-60, HL60, 48 h exposure) | IC50 (C6 astrocytoma cells; C6, 24 h exposure) | IC50 (C6 astrocytoma cells; C6, 48 h exposure) | IC50 (U87 glioma cells; U87, 24 h exposure) | IC50 (U87 glioma cells; U87, 48 h exposure) | IC50 ([1]; 24 h exposure) | IC50 ([1]; 48 h exposure) | effect on GFAP filaments of astrocytes [2] | effect on neuronal networks ([2]; 48 h)
1 | CC1=C(/C=C/C(C)=C/C=C/C(C)=C/C(=O)O[C@@H]2C3=C(C)C4(CC4)[C@@](C)(O)C(=O)C3=CC2(C)C)C(C)(C)CCC1 [Compound 2, illudin M retinoate] | 5000 ± 300 nM | 4000 ± 700 nM | 6800 ± 2800 nM | 4500 ± 1100 nM | 40000 ± 4000 nM | 12000 ± 1300 nM | 37000 ± 3000 nM | 2700 ± 700 nM | 7000 ± 3200 nM | 2000 ± 1200 nM | did not cause similar alterations to astrocytes | –
2 | CC1=C2C(=CC(C)(C)[C@@H]2O)C(=O)[C@](C)(O)C12CC2 [Compound 1, illudin M] | 40 ± 10 nM | 20 ± 10 nM | 7 ± 2 nM | 1 nM | 1000 ± 300 nM | 400 ± 60 nM | 630 ± 40 nM | 130 ± 30 nM | 400 ± 100 nM | 50 ± 20 nM | markedly pitted | did not completely disorganize neuronal networks
